In patent US20190136321A1, “USE OF TRANSLATIONAL PROFILING TO IDENTIFY TARGET MOLECULES FOR THERAPEUTIC TREATMENT” (The Regents of The University of California, priority 2013, published 2019):

Tests used:
[1] = system: Normal human lung fibroblasts; test: Ribosomal profiling of TGF-β treated fibroblasts; assay type: cell-based
Experimental: (§1) On Day 0, fibroblasts were seeded and cultured under normal conditions overnight. On Day 1, media was removed, cells were washed with PBS and then incubated for 48 hrs in serum free media (DMEM supplemented with penicillin, streptomycin, and glutamax). On Day 3, media was removed and cells were cultured for 24 hrs with fresh serum free media ±PAMi and ±10 ng/ml TGF-β. After this 24 hour incubation, about 6×10^6 cells/10 cm plate and about 1×10^6 cells/well of a 6-well plate were used for ribosomal profiling and western blot analysis, respectively.
Cells were washed with cold PBS supplemented with cycloheximide and lysed with 1× mammalian lysis buffer for 10 min on ice. Lysates were clarified by centrifugation for 10 min at 14,000 rpm and supernatants were collected. Cell lysates were processed to generate the ribosomal protected fragments and total mRNA according to the instructions included with the ARTseq Ribosome Profiling Kit. Sequencing of total RNA (RNA) and of ribosome-protected fragments of RNA (RPF) was carried out with standard Illumina rna seq methodology.
RNA-seq reads were processed with tools from the FASTX-Toolkit (fastq_quality_trimmer, fastx_clipper and fastx_trimmer). Unprocessed and processed reads were evaluated for a variety of quality measures using FastQC. Processed reads were mapped to the human genome using Tophat. Gene-by-gene assessment of the number of fragments strictly and uniquely mapping to the coding region of each gene was conducted using HTSeq-count, a component of the HTSeq package. Differential analyses of the transforming effect of TGF-β on fibroblasts and effect of PAMi treatment on this transformation were carried out with the software packages DESeq for transcription (RNA counts) and translational rate (RPF counts) and BABEL for translational efficiency based upon ribosomal occupancy as a function of RNA level (RNA and RPF counts). Genes with low counts in either RPF or RNA were excluded from differential analyses. Pathway and network analyses of differential data was conducted using Ingenuity Pathway Analysis (IPA).

[2] = system: Normal human lung fibroblasts; test: Procollagen Type 1 C-Peptide (PIP EIA) in TGF-β treated fibroblasts; assay type: cell-based; conditions: 10 ng/ml TGF-β, 24 hours
Experimental: Normal human lung fibroblasts (Lonza #CC-2512) were cultured in DMEM+10% FBS supplemented with Penicillin, Streptomycin and Glutamax (Invitrogen) at 37° C. in a humidified incubator with 5% CO2. Cell passage numbers 2 through 5 were used for all experiments.
as §1
Culture Media was collected, centrifuged to pellet cellular debris, and stored at −80° C. Procollagen Type 1 C-Peptide (PIPC) was quantified using the (PIP) EIA kit (Clontech Cat# MK101) according to manufacturer's instructions.

TGF-β was tested, and the “genes in the pathway having an increase in translational efficiency” value ([1]; fibroblasts treated with TGF-β, 141 pathway genes) was 118 of the 141, the “mean translational efficiency of the 141 pathway-associated genes” value ([1]; fibroblasts upon TGF-β treatment) was −1.05 log 2 relative to population mean and the “mean increase in translational efficiency, all genes in the pathway (printed: these 12 genes)” value ([1]; fibroblasts, TGF-β) was 0.65 log 2. The “mean increase in translational efficiency, subset of 12 genes” value ([1]; fibroblasts, TGF-β) was 1.3 log 2 and the “increase in procollagen production” value [2] was “approximately 7 fold”.
